Values of other authors in publication PMC6522624, “Comparison of desferrioxamine and NODAGA for the gallium-68 labeling of exendin-4” (EJNMMI Radiopharmacy and Chemistry, 2019).

Assays:
[1] = gallium chelation; ref Šimeček et al. [2011]; Evers et al. [1989]
Text: However, their thermodynamic complex formation stability constant (log K) have been reported to be very similar, with 28.65 for DFO and 29.63 for NOTA (Šimeček et al. [2011]; Evers et al. [1989]).

[2] = in vivo
Text: Insulinomas generally express highly and specifically the glucagon-like peptide-1 receptor (GLP-1R) as they are of β-cell origin (Reubi and Waser [2003]). GLP-1R is a G-protein coupled receptor of the class B receptor family (Zhang et al. [2017]). […] Dipeptidyl peptidase-4 (DPP4) is responsible for the cleavage of the peptide (Baggio and Drucker [2007]).

Compound | thermodynamic complex formation stability constant (log K) [1] | biological half-life [2]
CC(=O)N(O)CCCCCNC(=O)CCC(=O)N(O)CCCCCNC(=O)CCC(=O)N(O)CCCCCN [DFO, N′-[5-(acetyl-hydroxy-amino)pentyl]-N-[5-[3-(5-aminopentyl-hydroxy-carbamoyl)propanoylamino]pentyl]-N-hydroxy-butane diamide] | 28.65 | –
GLP-1: endogenous peptide ligand of GLP-1R | – | about 2 min
O=C(O)CN1CCN(CC(=O)O)CCN(CC(=O)O)CC1 [NOTA] | 29.63 | –
